Experimental data published in patent US20210198256A1, “COMPOUNDS FOR THE DEGRADATION OF BRD9 OR MTH1” (C4 Therapeutics, Inc., priority 2018, published 2021).

Test system: SMARTCAR-MTH1-wt-HiBiT (Jurkat.7 cells)
Assay: HiBit Lytic Assay (HiBit DC50, MTH1 degraders of Table 2)
Format: cell-based, human
Conditions: Jurkat.7 SMARTCAR-MTH1-wt-HiBiT cells, compound treatment time 4 hr, 11-point half log dose response
Procedure, shortened: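 Jurkat.7 cells expressing SMARTCAR-MTH1-wt-HiBiT were treated at 37° C with 11-point half-log dilutions (top final 1000 nM or 833 nM, duplicates, 0.1% DMSO). Remaining HiBiT-tagged protein was read by Nano-Glo HiBiT lytic luminescence, normalized to media-only and DMSO controls.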

Row | SMILES | DC50
1 | COc1cc2ncc(C(=O)NC3CC3)c(Nc3ccccc3)c2cc1-c1ccc(C(=O)NCCCCn2cc(C(C)Nc3cccc4c3C(=O)N(C3CCC(=O)NC3=O)C4=O)nn2)c(F)c1 (stereo not shown) [Compound 432, N-cyclopropyl-6-(4-((4-(4-(1-((2-(2,6-dioxopiperidin-3-yl)-1,3-dioxoisoindolin-4-yl)amino)ethyl)-1H-1,2,3-triazol-1-yl)butyl)carbamoyl)-3-fluorophenyl)-7-methoxy-4-(phenylamino)quinoline-3-carboxamide] | < 0.1 µM
2 | O=C1CCC(N2C(=O)c3cccc(NCC(O)C(=O)NCCCNC(=O)c4ccc(-c5cc6c(Nc7ccccc7)c(C(=O)NC7CC7)cnc6cc5F)cc4F)c3C2=O)C(=O)N1 (stereo not shown) [Compound 440, N-cyclopropyl-6-(4-((3-(3-((2-(2,6-dioxopiperidin-3-yl)-1,3-dioxoisoindolin-4-yl)amino)-2-hydroxypropanamido)propyl)carbamoyl)-3-fluorophenyl)-7-fluoro-4-(phenylamino)quinoline-3-carboxamide] | < 0.1 µM
3 | CCNC(=O)c1cnc2ccc(NCCCCCCCCCCNC(=O)COc3cccc4c3C(=O)N(C3CCC(=O)NC3=O)C4=O)cc2c1Nc1ccccc1 (stereo not shown) [Compound 452, 6-((10-(2-((2-(2,6-dioxopiperidin-3-yl)-1,3-dioxoisoindolin-4-yl)oxy)acetamido)decyl)amino)-N-ethyl-4-(phenylamino)quinoline-3-carboxamide] | < 0.1 µM
4 | CNc1c(C(=O)NC2CC2)cnc2cc(F)c(-c3ccc(C(=O)NCCCCCCCCc4cnc5c(c4)CN(C4CCC(=O)NC4=O)C5=O)c(F)c3)cc12 (stereo not shown) [Compound 405, N-cyclopropyl-6-[4-[8-[6-(2,6-dioxo-3-piperidyl)-7-oxo-5H-pyrrolo[3,4-b]pyridin-3-yl]octylcarbamoyl]-3-fluoro-phenyl]-7-fluoro-4-(methylamino)quinoline-3-carboxamide] | < 0.1 µM
5 | CNC(=O)c1cnc2ccc(NCCCCCCCCCCNC(=O)CN(C)c3cccc4c3C(=O)N(C3CCC(=O)NC3=O)C4=O)cc2c1Nc1ccccc1 (stereo not shown) [Compound 447, 6-((10-(2-((2-(2,6-dioxopiperidin-3-yl)-1,3-dioxoisoindolin-4-yl)(methyl)amino)acetamido)decyl)amino)-N-methyl-4-(phenylamino)quinoline-3-carboxamide] | < 0.1 µM
6 | CNc1c(C(=O)NC2CC2)cnc2cc(C(F)(F)F)c(-c3ccc(C(=O)NCCCCn4cc(C(C)(C)Nc5cccc6c5C(=O)N(C5CCC(=O)NC5=O)C6=O)nn4)nc3)cc12 (stereo not shown) [Compound 437, N-cyclopropyl-6-(6-((4-(4-(2-((2-(2,6-dioxopiperidin-3-yl)-1,3-dioxoisoindolin-4-yl)amino)propan-2-yl)-1H-1,2,3-triazol-1-yl)butyl)carbamoyl)pyridin-3-yl)-4-(methylamino)-7-(trifluoromethyl)quinoline-3-carboxamide] | < 0.1 µM
7 | CNc1c(C(=O)NC2CC2)cnc2cc(F)c(-c3ccc(C(=O)NCCCCCCCCc4ccc5c(n4)CN(C4CCC(=O)NC4=O)C5=O)c(F)c3)cc12 (stereo not shown) [Compound 408, N-cyclopropyl-6-[4-[8-[6-(2,6-dioxo-3-piperidyl)-5-oxo-7H-pyrrolo[3,4-b]pyridin-2-yl]octylcarbamoyl]-3-fluoro-phenyl]-7-fluoro-4-(methylamino)quinoline-3-carboxamide] | < 0.1 µM
8 | NC(=O)c1cnc2ccc(NCCCCCCCCNC(=O)COc3cccc4c3C(=O)N(C3CCC(=O)NC3=O)C4=O)cc2c1Nc1ccccc1 (stereo not shown) [Compound 466, 6-((8-(2-((2-(2,6-dioxopiperidin-3-yl)-1,3-dioxoisoindolin-4-yl)oxy)acetamido)octyl)amino)-4-(phenylamino)quinoline-3-carboxamide] | < 0.1 µM
9 | O=C1CCC(N2Cc3c(CCCC(O)C(=O)NCCNC(=O)c4ccc(-c5cc6c(Nc7ccccc7)c(C(=O)NC7CC7)cnc6cc5F)cc4F)cccc3C2=O)C(=O)N1 (stereo not shown) [Compound 439, N-cyclopropyl-6-(4-((2-(5-(2-(2,6-dioxopiperidin-3-yl)-1-oxoisoindolin-4-yl)-2-hydroxypentanamido)ethyl)carbamoyl)-3-fluorophenyl)-7-fluoro-4-(phenylamino)quinoline-3-carboxamide] | < 0.1 µM
10 | CN(CC(=O)NCCCCCC(=O)N1CCC(c2ccc3ncc(C(N)=O)c(Nc4ccccc4)c3c2)CC1)c1cccc2c1C(=O)N(C1CCC(=O)NC1=O)C2=O (stereo not shown) [Compound 312, 4-anilino-6-[1-[6-[[2-[[2-(2,6-dioxo-3-piperidyl)-1,3-dioxo-isoindolin-4-yl]-methyl-amino]acetyl]amino]hexanoyl]-4-piperidyl]quinoline-3-carboxamide] | < 1 µM

Results, then the compound that gave them:

Row | DC50 | SMILES
11 | < 0.1 µM | CNC(=O)c1cnc2ccc(-c3ccc(C(=O)NCCCCNC(=O)C(C)Nc4cccc5c4C(=O)N(C4CCC(=O)NC4=O)C5=O)c(F)c3)cc2c1Nc1ccccc1 (stereo not shown) [Compound 372, 4-anilino-6-[4-[4-[2-[[2-(2,6-dioxo-3-piperidyl)-1,3-dioxo-isoindolin-4-yl]amino]propanoylamino]butylcarbamoyl]-3-fluoro-phenyl]-N-methyl-quinoline-3-carboxamide]
12 | < 0.1 µM | CNC(=O)c1cnc2ccc(-c3ccc(CCCCCNC(=O)CNc4cccc5c4C(=O)N(C4CCC(=O)NC4=O)C5=O)nc3)cc2c1Nc1ccccc1 (stereo not shown) [Compound 385, 4-anilino-6-[6-[5-[[2-[[2-(2,6-dioxo-3-piperidyl)-1,3-dioxo-isoindolin-4-yl]amino]acetyl]amino]pentyl]-3-pyridyl]-N-methyl-quinoline-3-carboxamide]
13 | < 0.1 µM | CNC(=O)c1cnc2ccc(-c3ccc(C(=O)NCCCNC(=O)C(C)Nc4cccc5c4C(=O)N(C4CCC(=O)NC4=O)C5=O)cc3)cc2c1Nc1ccccc1 (stereo not shown) [Compound 363, 4-anilino-6-[4-[3-[2-[[2-(2,6-dioxo-3-piperidyl)-1,3-dioxo-isoindolin-4-yl]amino]propanoylamino]propylcarbamoyl]phenyl]-N-methyl-quinoline-3-carboxamide]
14 | < 0.1 µM | CNC(=O)c1cnc2ccc(-c3ccc(C(=O)NCCCCNC(=O)CNc4cccc5c4C(=O)N(C4CCC(=O)NC4=O)C5=O)c(C)c3)cc2c1Nc1ccccc1 (stereo not shown) [Compound 353, 4-anilino-6-[4-[4-[[2-[[2-(2,6-dioxo-3-piperidyl)-1,3-dioxo-isoindolin-4-yl]amino]acetyl]amino]butylcarbamoyl]-3-methyl-phenyl]-N-methyl-quinoline-3-carboxamide]
15 | < 0.1 µM | CNC(=O)c1cnc2ccc(-c3nc(C(=O)NCCCCNC(=O)CNc4cccc5c4C(=O)N(C4CCC(=O)NC4=O)C5=O)cs3)cc2c1Nc1ccccc1 (stereo not shown) [Compound 387, 2-[4-anilino-3-(methylcarbamoyl)-6-quinolyl]-N-[4-[[2-[[2-(2,6-dioxo-3-piperidyl)-1,3-dioxo-isoindolin-4-yl]amino]acetyl]amino]butyl]thiazole-4-carboxamide]
16 | < 0.1 µM | CNC(=O)c1cnc2ccc(-c3ccc(C(=O)NCCCCN4CCN(c5cccc6c5C(=O)N(C5CCC(=O)NC5=O)C6=O)CC4)cc3)cc2c1Nc1ccccc1 (stereo not shown) [Compound 359, 4-anilino-6-[4-[4-[4-[2-(2,6-dioxo-3-piperidyl)-1,3-dioxo-isoindolin-4-yl]piperazin-1-yl]butylcarbamoyl]phenyl]-N-methyl-quinoline-3-carboxamide]
